# Data published in patent US11541049B2, “Tetrahydroisoquinoline derivatives, preparation process and use thereof” (SICHUAN KELUN-BIOTECH BIOPHARMACEUTICAL CO., LTD., priority 2018, dated 2023).
# Tests used:
# [1] = Solubility test in pH 7.4 buffer; type: physicochemical; conditions: buffer (pH 7.4), aqueous buffer, thermodynamic from solid, 25° C.
# Description: The test compound was dissolved in a buffer (pH 7.4) at room temperature until the solution reached supersaturation. The solution was shaken at 25° C. by a constant temperature mixer for 4 hours, filtered through a 0.45 μm aqueous membrane filter, and the concentration was measured by UPLC. 1 mg of the test compound was accurately weighed, and dissolved in 10 mL volumetric flask as the reference substance. The reference substance was measured using the same process. The solubility of the test compound was calculated according to external standard process, and the results are shown in table 4.
# [2] = Pharmacokinetics study in male SD rats, intravenous injection; type: in vivo
# Description: (§1) Pharmacokinetics characteristics were examined by administering compound of the present disclosure and the reference compound (BMS-962212) to male SD rats through intravenous injection (IV). Blood was collected at various time points after administration. The blood was anticoagulated with EDTA-K2. Plasma samples were obtained by centrifugation within 30 min after blood collection, and retained at −80° C. The plasma samples were processed to precipitate the proteins and then analyzed by LC-MS/MS.
# (§2) The pharmacokinetic parameters were calculated using WinNonlin 6.3 software by employing a non-compartmental model.
# [3] = Pharmacokinetics study in male rabbits, intravenous injection; type: in vivo
# Description: as §1, with “properties” for “characteristics”, “rabbits” for “SD rats”, “centrifugation,” for “centrifugation within 30 min after blood collection,”
# as §2
# [4] = target: human coagulation factor XIa (Homo sapiens (Human), UniProt P03951); test: Inhibition of coagulation factor XIa (fluorogenic substrate, enzyme kinetic mode); type: biochemical
# Description: The following procedures can be used to determine the in vitro inhibition of human coagulation factor XIa by the compound of the present disclosure, as indicated by IC50.
# Enzyme: human coagulation factor XIa; manufacturer: Haemtech;
# Substrate: Boc-Ile-Glu-Gly-Arg-AMC Acetate salt; manufacturer: Bachem;
# Reaction buffer: 50 mM HEPES, 145 mM NaCl, 5 mM KCl, 0.1% BSA, pH 7.4;
# The test compounds were dissolved in reaction buffer at different concentrations. 4 μl of coagulation factor XIa and 4 μl of the test compound were added to a 384 well plate, incubated at room temperature for 10 minutes after mixed thoroughly, and then 4 μl of substrate was added to initiate the reaction. For reading fluorescence signal value, enzyme kinetic mode was used. The wavelength of excitation light was selected to be 380 nm, and the wavelength of emission light was selected to be 460 nm. Read once per 30 seconds, and continuously read 20 cycles. Linear regression analysis of signal value-time was performed during the linear reaction period, and the slope was the reaction rate, and the enzyme activity inhibition rate was calculated according to the following formula. The half inhibitory concentration IC50 values of the compound were fitted using GraphPad Prism 5 software, and results are shown in Table 1. Inhibition rate %=(V0−Vi)/(V0−Vblank)×100.
# In the formula: V0 is the reaction rate of the control well (using the same volume of reaction buffer without adding test compound), Vi is the reaction rate of test compound, Vblank is a blank well (using the same volume of reaction buffer without adding either enzyme or test compound).
# [5] = Blood exposure after intravenous administration in various animal species (summary); type: in vivo; conditions: rat, rabbit, dog
# Description: as §1
# as §1, with “properties” for “characteristics”, “rabbits” for “SD rats”, “centrifugation,” for “centrifugation within 30 min after blood collection,”
# as §1, with “properties” for “characteristics”, “Beagle dog” for “male SD rats”, “Plasma samples were obtained by centrifugation within 30 min after blood collection, and retained at −80° C.” left out
# SD rats = test: Single dose toxicity study in SD rats, intravenous infusion; conditions: 50, 75, 100, 150, 200 mg/kg, intravenous infusion (2 ml/min)
# Description: The clinical observation was carried out for 7 days after a single dose, and the body weight of the animals were measured. On the 8th day, blood samples were taken after anesthesia for detection of hematology, blood biochemistry, coagulation and other indicators. Observation was also conducted by gross anatomy.
# human plasma = test: Effect on coagulation in vitro (aPTT and PT), human plasma; conditions: final concentration 10NM (so in the source), n = 3
# Excerpt: (§3) aPTT reagent (purchased from Sysmex);
# (§4) PT reagent (purchased from Sysmex);
# (§5) The coagulation pathway includes the extrinsic coagulation pathway and the intrinsic coagulation pathway. The parameter associated with the extrinsic coagulation pathway is prothrombin time, expressed as PT; the parameter associated with the intrinsic coagulation pathway is activated partial thromboplatin time, expressed as aPTT.
# (§6) After anticoagulation, blood of different species (rabbit, human) was subjected to centrifugation. The upper layer of plasma was collected and divided into several aliquots. The test compounds were added to make the final concentration of test compound to be 10NM. Incubation was conducted at 37° C. after mixed thoroughly. Then the samples were put into a coagulation analyzer (Sysmex CA1500, Sysmex, Japan) for the aPTT and PT assays. Blank plasma (without test compound) was used as a reference, and the ratio values of aPTT and PT of all samples and blank plasmas were analyzed, the results are shown in table 3.
# [6] = Pharmacokinetics study in Beagle dogs, intravenous injection; type: in vivo, Beagle dog
# Description: as §1, with “properties” for “characteristics”, “Beagle dog” for “male SD rats”, “centrifugation,” for “centrifugation within 30 min after blood collection,”
# as §2
# rabbit plasma = test: Effect on coagulation in vitro (aPTT and PT), rabbit plasma; conditions: final concentration 10NM (so in the source), n = 3
# Excerpt: as §3, §4, §5, §6
# [7] = male, SD, rat, plasma, rats, 1 mg/kg
# Chain of human coagulation factor XIa (P03951 388-625): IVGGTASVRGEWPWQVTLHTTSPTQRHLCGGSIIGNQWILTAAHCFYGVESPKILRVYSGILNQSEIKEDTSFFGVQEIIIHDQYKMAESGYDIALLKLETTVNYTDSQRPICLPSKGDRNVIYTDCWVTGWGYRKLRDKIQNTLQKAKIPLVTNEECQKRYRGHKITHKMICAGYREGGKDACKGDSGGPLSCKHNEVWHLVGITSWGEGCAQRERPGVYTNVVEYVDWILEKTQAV
# Chain of human coagulation factor XIa (P03951 19-387): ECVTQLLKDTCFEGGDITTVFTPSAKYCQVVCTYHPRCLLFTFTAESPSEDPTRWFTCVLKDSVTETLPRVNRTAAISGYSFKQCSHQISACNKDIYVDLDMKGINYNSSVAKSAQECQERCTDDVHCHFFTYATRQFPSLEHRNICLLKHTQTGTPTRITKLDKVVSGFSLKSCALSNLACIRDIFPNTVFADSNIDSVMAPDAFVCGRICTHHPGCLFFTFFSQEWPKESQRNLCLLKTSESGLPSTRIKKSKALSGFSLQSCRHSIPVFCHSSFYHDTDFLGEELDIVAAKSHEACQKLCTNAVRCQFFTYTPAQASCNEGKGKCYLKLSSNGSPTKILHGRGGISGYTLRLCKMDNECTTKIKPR
smiles,measurement,setting,value
"N[C@@H](CCCCNC(=O)CN1CC=C(c2cccc3c2CCN(C(=O)[C@H]2CC(c4cccc(Cl)c4F)=NO2)[C@@H]3C(=O)Nc2ccc(C(=O)O)cc2)CC1)C(=O)O [Example 5, 4-((S)-5-(1-(2-(((S)-5-amino-5-carboxypentyl)amino)-2-oxoethyl)-1,2,3,6-tetrahydropyridin-4-yl)-2-((R)-3-(3-chloro-2-fluorophenyl)-4,5-dihydroisoxazole-5-carbonyl)-1,2,3,4-tetrahydroisoquinoline-1-carboxamido)benzoic acid]",solubility at 4 h,[1],10.8 mg/mL
same,AUC(0-inf),[2]; [7],2890 ± 473 ng·h/mL
same,AUC(0-t),[2]; [7],2890 ± 473 ng·h/mL
same,Cmax,[2]; [7],2990 ± 629 ng/mL
same,clearance,[2]; [7],5.88 ± 1.07 mL/min/kg
same,half-life,[2]; [7],0.78 ± 0.06 h
same,AUClast relative to that of the reference compound,"[2]; rat plasma, 1 mg/kg vs 5 mg/kg reference, dosage normalized",3.53 times
same,T1/2 relative to that of the reference compound,"[2]; rat, 1 mg/kg vs 5 mg/kg reference",4.11 times
same,Cmax relative to that of the reference compound,"[2]; rat, 1 mg/kg vs 5 mg/kg reference, dosage normalized",1.35 times
same,AUClast relative to that of the reference compound,[3]; 1 mg/kg each,12.04 times
same,Cmax relative to that of the reference compound,[3]; 1 mg/kg each,4.74 times
same,T1/2 relative to that of the reference compound,[3]; 1 mg/kg each,2.65 times
same,AUC(0-inf),"[3]; male, rabbit, plasma, 1 mg/kg",5740 ± 2270 ng·h/mL
same,AUC(0-t),"[3]; male, rabbit, plasma, 1 mg/kg",5730 ± 2270 ng·h/mL
same,Cmax,"[3]; male, rabbit, plasma, 1 mg/kg",6950 ± 1900 ng/mL
same,Vd,"[3]; male, rabbit, plasma, 1 mg/kg",0.3 ± 0.09 L/kg
same,clearance,"[3]; male, rabbit, plasma, 1 mg/kg",3.18 ± 1.06 mL/min/kg
same,half-life,"[3]; male, rabbit, plasma, 1 mg/kg",1.14 ± 0.26 h
same,apparent volume of distribution as share of that of the reference compound,[3]; same dosage 1 mg/kg,23%
same,IC50,[4],0.16 ± 0.02 nM
same,exposure in blood relative to that of BMS-962212,[5],3-25 times
same,Single dose toxicity study in SD rats: observation,SD rats,No abnormality was found
same,Ratio of PT to that of blank plasma,human plasma,1.03
same,Ratio of aPTT to that of blank plasma,human plasma,2.95
same,AUClast relative to that of the reference compound,[6]; 0.5 mg/kg each,20.38 times
same,Cmax relative to that of the reference compound,[6]; 0.5 mg/kg each,2.67 times
same,T1/2 relative to that of the reference compound,[6]; 0.5 mg/kg each,7.25 times
same,AUC(0-inf),"[6]; dog, plasma, 0.5 mg/kg",18100 ± 683 ng·h/mL
same,AUC(0-t),"[6]; dog, plasma, 0.5 mg/kg",17200 ± 370 ng·h/mL
same,Cmax,"[6]; dog, plasma, 0.5 mg/kg",3950 ± 808 ng/mL
same,Vd,"[6]; dog, plasma, 0.5 mg/kg",0.24 ± 0.02 L/kg
same,clearance,"[6]; dog, plasma, 0.5 mg/kg",0.46 ± 0.02 mL/min/kg
same,half-life,"[6]; dog, plasma, 0.5 mg/kg",6.02 ± 0.8 h
same,apparent volume of distribution as share of that of the reference compound,[6]; same dosage 0.5 mg/kg,34%
same,Ratio of PT to that of blank plasma,rabbit plasma,1.00
same,Ratio of aPTT to that of blank plasma,rabbit plasma,1.84
